The source of these data is patent US12552806B2, “Androgen receptor regulation by small molecule enantiomers” (University of Southern California, priority 2020, dated 2026).

The subject of data set [1] is AR. The experiment in a line: ARE-luciferase assay in cells expressing ARE-luciferase (enantiomer pairs). The note with it: 10 μM mixture + 1 nM R1881, 24 h. The data set is classed as cell-based. An excerpt:
(§1) To test for corresponding transcriptional activation, we performed assays in cells expressing ARE-luciferase. […] Next, we examined gene expression in VCaP cells, a hormone-responsive but independent model of CRPC highly expressing AR.
(§2) PC3 and VCaP cell lines were obtained from ATCC and cultured as recommended. Generation and culture of PC3 GFP-AR cells were described previously (14). ARE-luciferase cells were generated using Cignal Lenti AR Reporter (Qiagen). Cell lines were authenticated using NIST-approved short tandem repeat DNA profiling and tested negative for mycoplasma. Drug treatments were conducted after overnight culture in phenol red-free media supplemented with charcoal:dextran stripped FBS.
(§3) Luminometer Assays. For ARE-luciferase, luciferase substrate was added to lysed cells after 24-h treatment. For viability, cells were lysed with CellTiter-Glo 3D Cell Viability Assay (Promega) after 6 d of treatment. Measurements were performed in 96-well plates (Corning) using a GloMax 96 Microplate Luminometer (Promega).

Data set [2] in a line: Microsome stability assay. The data set is classed as in vitro ADME, human. The note with it: for toxic metabolite BMS-501949 detected in LCMS: 8 h incubation, o-fluoro-BMS-501949 for EITM-1707. As to the method:
Microsome stability assays. In vitro metabolism was determined as described previously. Specifically, to measure metabolism of parent compounds, the higher throughput protocol was applied, in which 0.5 mg/ml pooled human liver microsomes (Sigma) were mixed with 1 μM drugs and phosphate buffer (0.1 M, pH 7.4) in 96-well plates. Enzymatic reactions were started by adding 1 mM NADPH (Sigma Aldrich) followed by incubation at 37° C. Fractions were quenched by transfer to ice-cold acetonitrile after the indicated incubation times. Samples were analyzed using liquid chromatography-mass spectrometry (LC/MS-MS). Rates of intrinsic clearance were determined from the amount of the parent compound consumed per min per mg of microsomal protein as described previously. To analyze accumulating metabolites, the basic protocol was used, and microsomes were incubated with 10 μM drugs for 8 h.

For data set [3], the system named is VCaP cells. Briefly: VCaP viability assay (CellTiter-Glo). In kind it is cell-based. On the procedure:
as §2, §3
On the technique in general: ATP-based viability assays read luminescence as a measure of living cells.

Data set [4] deals with AR-regulated genes in VCaP cells. Briefly: RT-qPCR array of AR target genes in VCaP cells. In kind it is cell-based. The conditions noted are these: 82 AR target genes, vs NTC and DHT. As to the method: as §1
RT-qPCR Array. RNA was isolated using the Illustra RNAspin Mini Kit (GE Healthcare). RNA was transcribed to cDNA using RT2 First Strand Kit (Qiagen). RT-qPCR was performed using Biorad CFX Connect on a RT2 Profiler PCR Array Human Androgen Receptor Signaling Targets (Qiagen).

Data set [5] deals with T1, AR T878A (Homo sapiens, UniProt P10275, T878A).
T1 construct: LNCaP cells expressing AR T878A; endogenous in cells; host or cells: LNCaP-luc (LNCaP stably carrying the Cignal Lenti AR Reporter)
T1 sequence (P10275 1-920 T878A): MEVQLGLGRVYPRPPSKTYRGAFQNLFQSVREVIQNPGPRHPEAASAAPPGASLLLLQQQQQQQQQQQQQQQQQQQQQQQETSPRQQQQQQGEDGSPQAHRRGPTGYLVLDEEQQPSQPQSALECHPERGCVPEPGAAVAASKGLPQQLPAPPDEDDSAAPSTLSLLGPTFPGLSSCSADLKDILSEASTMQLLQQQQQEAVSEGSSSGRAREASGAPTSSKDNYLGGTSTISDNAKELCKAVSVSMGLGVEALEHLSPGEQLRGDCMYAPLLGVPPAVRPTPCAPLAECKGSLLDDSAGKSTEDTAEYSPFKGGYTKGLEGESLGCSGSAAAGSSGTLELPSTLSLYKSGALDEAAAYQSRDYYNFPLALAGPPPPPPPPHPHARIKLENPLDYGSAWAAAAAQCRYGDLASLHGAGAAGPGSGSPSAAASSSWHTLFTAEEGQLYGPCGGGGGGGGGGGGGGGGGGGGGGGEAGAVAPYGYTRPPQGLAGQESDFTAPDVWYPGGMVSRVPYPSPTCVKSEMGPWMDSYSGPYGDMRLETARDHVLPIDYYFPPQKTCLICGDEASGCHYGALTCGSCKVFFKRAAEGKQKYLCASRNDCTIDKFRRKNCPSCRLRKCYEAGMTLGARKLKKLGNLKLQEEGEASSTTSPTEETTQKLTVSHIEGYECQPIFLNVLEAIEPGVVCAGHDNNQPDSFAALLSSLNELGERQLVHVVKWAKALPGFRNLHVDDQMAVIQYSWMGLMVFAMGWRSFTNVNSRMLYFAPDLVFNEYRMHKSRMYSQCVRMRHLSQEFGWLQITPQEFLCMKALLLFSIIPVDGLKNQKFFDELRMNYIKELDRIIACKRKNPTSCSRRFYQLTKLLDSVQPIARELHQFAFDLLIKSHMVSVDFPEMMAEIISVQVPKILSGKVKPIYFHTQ
The experiment in a line: cell-based. In kind it is cell-based. An excerpt: We generated a LNCaP cell line stably expressing luciferase controlled by androgen response elements (ARE-luciferase).
Cell Culture and Treatments. The LNCaP cell line were obtained from ATCC, cultured in RPMI1640 (Corning) supplemented with 10% heat-inactivated GemCell bovine serum (Gemini Bio-Products) and Penicillin-Streptomycin (Gemini Bio-Products). Cell lines stably expressing ARE-luciferase (LNCaP-luc) was generated using Cignal Lenti AR Reporter (Qiagen) and was continuously cultured with 500 ng/mL Puromycin (Gibco) for positive selection. Cells were maintained at 37° C. in a humidified incubator with 5% carbon dioxide. All cell lines were authenticated using NIST approved short tandem repeat (STR) DNA profiling performed by the University of Arizona Genetics Core and routinely tested negative for mycoplasma.
Luciferase assay. LNCaP-luc cells were seeded in clear flat bottom white polystyrene 96-well plates (Corning) at a density of 12,000 cells/well. […] Dose-response curves were fit using the delta method and t-distribution (n=1). Compounds are tested up to 10 μM.

Data set [6] has as its system LNCaP cells. The experiment in a line: LNCaP cell viability assay (CellTiter-Glo). The conditions noted are these: 1 and 10 μM drug + 60 pM R1881, 5 days. In kind it is cell-based. As to the method: LNCaP cell viability assay. Cells were seeded into 96-well fibronectin coated (1 ug/cm^2) plates (CellCarrier, PerkinElmer) at a density of 5,000 cells/well. […] Drug-treated cells were lysed with CellTiter-Glo 3D Cell Viability Assay (Promega) and transferred to white 96-well plates (Corning). Luminescence was measured utilizing GloMax 96 Microplate Luminometer (Promega). Analysis was conducted in the R statistical environment (v 3.6.0). […] Visualizations were facilitated by the ggplot2 package (v3.2.1), with standard error (S.E.) shown where appropriate.

The structures appear in SMILES notation. Entries after “also recorded” stand apart in the source; their conditions may differ.

For `C[C@@]12O[C@@](C)(C[C@@H]1NC(=O)c1cc[nH]n1)[C@@H]1C(=O)N(c3ccc(C#N)c(C(F)(F)F)c3)C(=O)[C@@H]12` [(S)-EITM-1702, N-((3aS,4S,5S,7S,7aR)-2-(4-cyano-3-(trifluoromethyl)phenyl)-4,7-dimethyl-1,3-dioxooctahydro-1H-4,7-epoxyisoindol-5-yl)-1H-pyrazole-3-carboxamide], the “(S)-enantiomer contamination that halved the drug effect, ARE-luciferase” value in data set [1] (95% CI (2.1%, 2.9%)) is 2.5%. The “(S)-enantiomer contamination that canceled out the antagonist effect, ARE-luciferase” value in data set [1] (95% CI (6.0%, 12.0%)) is reported as 9%.
`CC(O)c1cc(C(=O)N[C@@H]2C[C@@]3(C)O[C@]2(C)[C@@H]2C(=O)N(c4ccc(C#N)c(C(F)(F)F)c4F)C(=O)[C@@H]23)n[nH]1` (stereo partly drawn) [EITM-1707, N-((3aR,4R,5R,7R,7aS)-2-(4-cyano-2-fluoro-3-(trifluoromethyl)phenyl)-4,7-dimethyl-1,3-dioxooctahydro-1H-4,7-epoxyisoindol-5-yl)-5-(1-hydroxyethyl)-1H-pyrazole carboxamide]: the “toxic metabolite BMS-501949 detected in LCMS” value in data set [2] (10 μM drug) is “not detected”. Also, the “toxic metabolite BMS-501949 detected in LCMS” value in data set [2] (10 μM drug, listed as (R)-EITM-1707) was “no”. The “active metabolite detected in LCMS” value in data set [2] (Unnamed metabolite (predicted active) for EITM compounds, BMS-570511 for BMS-641988, 10 μM drug, 8 h) is recorded as “yes”. Moreover, the half-life at 1 μM in data set [2] (human, pooled human liver microsomes, pH 7.4, liver microsomes, 1 μM drug, read-out: T½) was determined as 47.3 min. In data set [2] (human, pooled human liver microsomes, pH 7.4, liver microsomes, read-out: rate of intrinsic clearance), the microsomal CLint at 1 μM was determined as 10.3 µL/min/mg. Further, the “R1881-induced growth, in words” value in data set [3] (10 μM drug + 1 nM R1881, 6-d treatment) is recorded as “visibly suppressed R1881-induced growth”. Moreover, the IC50 (commonly the concentration needed to halve the response being measured) in data set [3] (Homo sapiens, VCaP) worked out at 0.41 µM. Further, the “AR-dependent gene expression, in words” value in data set [4] is listed as “down-regulated AR-dependent gene expression”. Also, in data set [5], the “AR agonism / antagonism in LNCaP ARE-luciferase, in words” value is “pure antagonists” and the 50% effective concentration (EC50) (usually the concentration giving half of the maximal effect) was 0.94 µM. Further, in data set [5] (LNCaP), the Emax – broadly, the greatest response seen or fitted, relative to the assay's reference – was determined as 13%. In addition, the “LNCaP proliferation / viable cells, in words” value in data set [6] was “inhibit LNCaP proliferation; also recorded: inhibited the growth of LNCaP prostate cancer cells”.
